The results in this text go back to article PMC6917776, “Discovery of a chemical probe for PRDM9” (Nature Communications, 2019).

Test in all cases: Methyltransferase selectivity assay (SPA)
Holding throughout (type): biochemical

The target in one assay is T1, PRMT8 (Homo sapiens, UniProt Q9NR22).
T1 construct: purchased Structural Genomics Consortium (SGC Toronto) in-house methyltransferase panel
The note with it: for activity at 1 µM / Activity %: 1µM compound; for Activity %: Exp1, Exp2, 1 µM; for activity at 10 µM: 10µM compound. Here is the method:
(§1) Selectivity against methyltransferases were determined as described previously. Details of the assays are described in the supplementary methods.
(§2) Methyltransferase selectivity assay1
(§3) The effect of chemical probes and negative controls on the methyltransferase activities of protein, DNA and RNA methyltransferases was tested by radiometric assays using 3H-SAM. For proteins such as MLL1 trimeric, MLL3 pentameric, EZH1 (PRC2) pentameric, and EZH2 (PRC2) trimeric complexes, as well as G9a, GLP, SUV39H1, SUV39H2, SUV420H1, SUV420H2, SETD2, SETD8, SETDB1, SETD7, PRMT1, PRMT3, PRMT4, PRMT5/ MEP50 complex, PRMT6, PRMT7, PRMT8, PRMT9, PRDM9, SMYD2, SMYD3, DNMT1, and BCDIN3D the incorporation of a tritium-labeled methyl group into biotinylated substrate was monitored using scintillation proximity assay (SPA). Briefly, a 10 µL reaction containing 3H-SAM and substrate at concentrations close to the apparent Km values for each enzyme (balanced conditions) was prepared. The reactions were quenched with 10 µL of 7.5 M guanidine hydrochloride; 180 µL of 20 mM Tris buffer (pH 8.0) were added, and the mixture was transferred to a 96-well FlashPlate and incubated for 1 h. The counts per minute (CPM) was measured on a TopCount plate reader. The CPM in the absence of compound or enzyme was defined as 100% activity and background (0%), respectively, for each dataset. […]

A further assay has as its target T2, PRMT9 (Homo sapiens, UniProt Q6P2P2).
T2 construct: purchased Structural Genomics Consortium (SGC Toronto) in-house methyltransferase panel
T2 sequence (Q6P2P2 1-845): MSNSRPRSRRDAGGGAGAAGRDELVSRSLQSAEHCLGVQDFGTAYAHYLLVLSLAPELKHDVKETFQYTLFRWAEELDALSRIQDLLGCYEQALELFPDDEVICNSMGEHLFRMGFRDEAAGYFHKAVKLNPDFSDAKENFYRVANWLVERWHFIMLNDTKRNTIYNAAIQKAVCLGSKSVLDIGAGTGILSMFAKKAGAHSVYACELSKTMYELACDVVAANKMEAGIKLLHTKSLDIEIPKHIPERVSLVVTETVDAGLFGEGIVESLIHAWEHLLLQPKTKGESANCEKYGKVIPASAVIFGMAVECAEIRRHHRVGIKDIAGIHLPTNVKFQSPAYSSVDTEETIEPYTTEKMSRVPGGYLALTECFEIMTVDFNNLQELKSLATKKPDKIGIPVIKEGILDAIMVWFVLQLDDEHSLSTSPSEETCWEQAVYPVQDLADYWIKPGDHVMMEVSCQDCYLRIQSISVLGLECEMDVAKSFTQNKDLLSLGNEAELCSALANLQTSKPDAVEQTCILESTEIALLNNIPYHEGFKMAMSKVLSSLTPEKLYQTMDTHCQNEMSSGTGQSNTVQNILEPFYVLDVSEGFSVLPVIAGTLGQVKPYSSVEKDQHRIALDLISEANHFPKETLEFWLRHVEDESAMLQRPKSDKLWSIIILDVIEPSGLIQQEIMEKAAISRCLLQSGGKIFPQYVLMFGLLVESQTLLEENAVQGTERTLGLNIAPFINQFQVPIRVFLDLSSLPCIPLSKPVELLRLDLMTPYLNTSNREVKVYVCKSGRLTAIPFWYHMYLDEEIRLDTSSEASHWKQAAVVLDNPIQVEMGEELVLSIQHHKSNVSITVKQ
Here is the method: as §1, §2, §3

The target of the next assay is T3, SETD2 (Homo sapiens, UniProt Q9BYW2).
T3 construct: purchased Structural Genomics Consortium (SGC Toronto) in-house methyltransferase panel
Here is the method: as §1, §2, §3

A further assay deals with T4, SETD7 (Homo sapiens, UniProt Q8WTS6).
T4 construct: purchased Structural Genomics Consortium (SGC Toronto) in-house methyltransferase panel
T4 sequence (Q8WTS6 1-366): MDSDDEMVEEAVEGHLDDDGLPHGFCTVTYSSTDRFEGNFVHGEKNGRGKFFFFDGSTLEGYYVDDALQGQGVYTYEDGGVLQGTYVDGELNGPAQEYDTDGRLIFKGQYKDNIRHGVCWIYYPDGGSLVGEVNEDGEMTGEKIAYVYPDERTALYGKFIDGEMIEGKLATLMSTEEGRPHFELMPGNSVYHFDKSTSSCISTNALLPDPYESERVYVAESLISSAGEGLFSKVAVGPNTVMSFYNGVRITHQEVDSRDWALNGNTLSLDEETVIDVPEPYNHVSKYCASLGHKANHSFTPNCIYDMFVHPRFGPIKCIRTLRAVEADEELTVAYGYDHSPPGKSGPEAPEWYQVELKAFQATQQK
The method, then: as §1, §2, §3

The target of another assay is T5, SETD8 (Homo sapiens, UniProt Q9NQR1).
T5 construct: purchased Structural Genomics Consortium (SGC Toronto) in-house methyltransferase panel
T5 sequence (Q9NQR1 1-393): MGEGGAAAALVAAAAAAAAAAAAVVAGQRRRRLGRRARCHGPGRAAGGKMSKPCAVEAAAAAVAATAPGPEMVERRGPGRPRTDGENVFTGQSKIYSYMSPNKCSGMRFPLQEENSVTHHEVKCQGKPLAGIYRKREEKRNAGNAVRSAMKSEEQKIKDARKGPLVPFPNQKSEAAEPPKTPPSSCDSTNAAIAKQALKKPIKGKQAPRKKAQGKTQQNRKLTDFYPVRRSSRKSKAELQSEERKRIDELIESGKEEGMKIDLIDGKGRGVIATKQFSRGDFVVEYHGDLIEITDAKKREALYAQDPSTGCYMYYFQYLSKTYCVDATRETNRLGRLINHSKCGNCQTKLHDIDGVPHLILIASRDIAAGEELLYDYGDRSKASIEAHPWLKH
The method, then: as §1, §2, §3

The next assay concerns the target T6, SUV420H2 (Homo sapiens, UniProt Q86Y97).
T6 construct: purchased Structural Genomics Consortium (SGC Toronto) in-house methyltransferase panel
Here is the method:
as §1, §2, §3

Setting [1] is: 10µM compound, Exp1, Exp2, 10 µM.
Setting [2] is: Exp1, Exp2, read-out: Activity %.
Where [3] appears, read: 1µM compound, Exp1, Exp2, read-out: Activity %.
The mark [4] stands for this setting: 10µM compound, Exp1, Exp2, read-out: Activity %.

The structures appear in SMILES notation. Several values for one entry are separate records, joined by “and”; a condition that tells them apart may be missing. Identical values can stand only once. Like-named read-outs stand apart in the source and are kept apart here.

T3 sequence (Q9BYW2 whole entry): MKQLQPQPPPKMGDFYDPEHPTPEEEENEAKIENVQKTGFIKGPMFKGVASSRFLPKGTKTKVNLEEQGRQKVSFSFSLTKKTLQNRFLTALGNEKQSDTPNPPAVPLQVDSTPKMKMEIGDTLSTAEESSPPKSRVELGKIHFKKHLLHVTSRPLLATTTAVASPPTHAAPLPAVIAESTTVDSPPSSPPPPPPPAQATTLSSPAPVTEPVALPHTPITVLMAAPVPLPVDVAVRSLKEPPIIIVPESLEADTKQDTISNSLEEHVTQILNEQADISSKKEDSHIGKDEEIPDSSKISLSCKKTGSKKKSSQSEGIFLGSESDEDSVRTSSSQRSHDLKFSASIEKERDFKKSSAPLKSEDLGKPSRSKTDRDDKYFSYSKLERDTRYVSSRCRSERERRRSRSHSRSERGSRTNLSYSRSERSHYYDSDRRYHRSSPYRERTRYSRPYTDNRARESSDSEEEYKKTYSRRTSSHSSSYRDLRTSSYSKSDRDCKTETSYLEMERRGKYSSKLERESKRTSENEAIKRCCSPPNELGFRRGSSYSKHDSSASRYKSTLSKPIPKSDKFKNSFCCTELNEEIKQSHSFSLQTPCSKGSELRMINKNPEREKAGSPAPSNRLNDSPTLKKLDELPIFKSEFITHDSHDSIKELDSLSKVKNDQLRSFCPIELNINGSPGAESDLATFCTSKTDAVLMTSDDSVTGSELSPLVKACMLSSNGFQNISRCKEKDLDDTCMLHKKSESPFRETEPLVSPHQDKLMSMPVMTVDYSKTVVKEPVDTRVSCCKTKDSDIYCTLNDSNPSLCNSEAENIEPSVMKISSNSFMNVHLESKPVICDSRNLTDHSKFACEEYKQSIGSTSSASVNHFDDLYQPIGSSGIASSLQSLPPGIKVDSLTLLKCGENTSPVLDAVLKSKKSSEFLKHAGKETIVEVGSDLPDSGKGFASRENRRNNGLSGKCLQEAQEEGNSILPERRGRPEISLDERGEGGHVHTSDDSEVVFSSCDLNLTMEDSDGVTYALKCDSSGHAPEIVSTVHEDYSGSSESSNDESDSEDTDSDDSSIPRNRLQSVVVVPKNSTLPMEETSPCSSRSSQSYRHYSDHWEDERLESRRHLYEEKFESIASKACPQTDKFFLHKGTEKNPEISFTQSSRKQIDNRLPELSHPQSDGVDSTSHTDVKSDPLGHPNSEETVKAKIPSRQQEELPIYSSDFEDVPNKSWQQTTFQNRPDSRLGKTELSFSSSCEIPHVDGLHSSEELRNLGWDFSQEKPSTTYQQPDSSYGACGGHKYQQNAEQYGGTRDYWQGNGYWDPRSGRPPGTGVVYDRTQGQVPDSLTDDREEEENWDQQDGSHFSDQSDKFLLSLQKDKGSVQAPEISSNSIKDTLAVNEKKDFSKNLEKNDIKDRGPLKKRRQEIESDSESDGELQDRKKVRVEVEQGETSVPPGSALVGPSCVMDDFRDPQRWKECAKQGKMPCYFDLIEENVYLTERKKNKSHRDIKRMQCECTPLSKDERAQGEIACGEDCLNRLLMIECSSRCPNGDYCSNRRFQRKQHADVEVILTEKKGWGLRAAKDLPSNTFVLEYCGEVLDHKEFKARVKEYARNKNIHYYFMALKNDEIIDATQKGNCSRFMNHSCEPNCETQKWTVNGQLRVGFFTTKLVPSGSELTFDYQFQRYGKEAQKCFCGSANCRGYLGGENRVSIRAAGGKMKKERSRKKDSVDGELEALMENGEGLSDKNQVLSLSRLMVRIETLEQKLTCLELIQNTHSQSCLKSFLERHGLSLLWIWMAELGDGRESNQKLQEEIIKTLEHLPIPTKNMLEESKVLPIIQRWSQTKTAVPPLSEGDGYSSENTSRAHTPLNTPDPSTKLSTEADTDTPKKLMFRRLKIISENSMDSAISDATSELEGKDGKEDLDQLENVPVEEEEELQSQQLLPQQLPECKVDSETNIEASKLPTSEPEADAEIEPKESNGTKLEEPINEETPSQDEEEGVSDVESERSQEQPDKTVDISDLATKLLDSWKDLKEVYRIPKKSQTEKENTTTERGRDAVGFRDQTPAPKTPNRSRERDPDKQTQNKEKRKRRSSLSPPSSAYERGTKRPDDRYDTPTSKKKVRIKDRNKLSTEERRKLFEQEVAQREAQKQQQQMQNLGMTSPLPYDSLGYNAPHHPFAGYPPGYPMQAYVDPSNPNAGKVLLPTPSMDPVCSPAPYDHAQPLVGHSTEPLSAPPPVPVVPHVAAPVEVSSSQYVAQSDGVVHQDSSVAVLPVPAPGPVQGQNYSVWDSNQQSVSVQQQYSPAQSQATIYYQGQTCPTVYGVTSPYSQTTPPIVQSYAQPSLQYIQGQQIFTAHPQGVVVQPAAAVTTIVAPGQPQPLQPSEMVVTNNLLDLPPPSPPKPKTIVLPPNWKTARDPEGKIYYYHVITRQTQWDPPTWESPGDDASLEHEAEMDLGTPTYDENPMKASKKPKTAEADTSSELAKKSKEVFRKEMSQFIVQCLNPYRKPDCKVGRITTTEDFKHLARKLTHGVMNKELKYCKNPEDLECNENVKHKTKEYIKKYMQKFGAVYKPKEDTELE
T6 sequence (Q86Y97 whole entry): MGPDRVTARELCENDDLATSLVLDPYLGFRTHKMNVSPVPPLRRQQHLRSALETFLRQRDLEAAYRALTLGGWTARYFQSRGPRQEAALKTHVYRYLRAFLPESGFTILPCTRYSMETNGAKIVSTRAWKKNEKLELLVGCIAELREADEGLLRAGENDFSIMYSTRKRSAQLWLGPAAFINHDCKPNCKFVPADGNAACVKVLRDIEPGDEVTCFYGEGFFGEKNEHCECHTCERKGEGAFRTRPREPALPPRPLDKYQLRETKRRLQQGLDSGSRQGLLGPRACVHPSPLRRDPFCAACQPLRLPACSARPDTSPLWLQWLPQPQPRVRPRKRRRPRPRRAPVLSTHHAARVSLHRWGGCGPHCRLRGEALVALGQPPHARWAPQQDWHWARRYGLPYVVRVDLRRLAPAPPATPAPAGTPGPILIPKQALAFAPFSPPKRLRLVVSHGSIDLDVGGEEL
T1 sequence (Q9NR22 whole entry): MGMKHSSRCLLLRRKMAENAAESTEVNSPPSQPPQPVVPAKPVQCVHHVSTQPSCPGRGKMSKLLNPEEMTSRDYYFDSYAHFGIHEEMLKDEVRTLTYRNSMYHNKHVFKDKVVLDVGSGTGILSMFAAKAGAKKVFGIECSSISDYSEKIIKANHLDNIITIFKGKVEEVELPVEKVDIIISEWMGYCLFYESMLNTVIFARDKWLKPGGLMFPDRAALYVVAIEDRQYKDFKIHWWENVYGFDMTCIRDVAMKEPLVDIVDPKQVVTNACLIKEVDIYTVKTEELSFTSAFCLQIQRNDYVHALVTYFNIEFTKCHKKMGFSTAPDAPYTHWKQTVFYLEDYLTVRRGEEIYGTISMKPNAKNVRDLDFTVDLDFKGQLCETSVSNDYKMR

Take `COc1cc(OC)cc(-c2noc(N3CCN(C)C4(CCN(c5ccccc5)CC4)C3)n2)c1` [MRK-740 -NC]: the activity at 1 µM on PRMT8 (Exp1, Exp2) is 97%; on PRMT9 (1µM compound, Exp1, Exp2), 102%; at SETD2 (1µM compound, Exp1, Exp2), 97%; on SETD7 (1µM compound, Exp1, Exp2), 96%; at SETD8 (1µM compound, Exp1, Exp2) it was 107%; at SUV420H2 (1µM compound, Exp1, Exp2), 106%. The Activity % came out at 104% at PRMT8; 106% at PRMT9 (1µM compound, Exp1, Exp2, 1 µM); 107% on SETD2 (1µM compound, Exp1, Exp2, 1 µM); 98% on SETD2 (setting [1]); 95% on SETD7 (1µM compound, Exp1, Exp2, 1 µM); 88% on SETD7 (setting [1]). The Activity % on SETD8 (1µM compound, Exp1, Exp2, 1 µM) was determined as 95%; at SETD8 (setting [1]), 92%; at SUV420H2 (setting [1]), 103%. The activity at 10 µM amounted to 98% on PRMT8 (Exp1, Exp2); 98% at PRMT9 (10µM compound, Exp1, Exp2); 99% at SETD2 (10µM compound, Exp1, Exp2); 94% at SETD7 (10µM compound, Exp1, Exp2); 94% on SETD8 (10µM compound, Exp1, Exp2); 98% at SUV420H2 (10µM compound, Exp1, Exp2).

For the compound `COc1cc(OC)cc(-c2noc(N3CCN(C)C4(CCN(c5ccnc(C)c5)CC4)C3)n2)c1` [MRK-740], the Activity % was 95% on PRMT8; 89% and 114% at PRMT9 (setting [1]); 96% at SETD2 (1µM compound, Exp1, Exp2, 1 µM); 86% on SETD2 (setting [1]); 92% on SETD7 (1µM compound, Exp1, Exp2, 1 µM); 87% on SETD7 (setting [1]). The Activity % was 95% at SUV420H2 (1µM compound, Exp1, Exp2, 1 µM) and 103% at SUV420H2 (setting [1]). Moreover, the activity at 1 µM amounted to 104% on PRMT8 (setting [2]); 100% at PRMT9 (setting [3]); 97% at SETD2 (setting [3]); 93% on SETD7 (setting [3]); 99% on SETD8 (setting [3]); 97% on SUV420H2 (setting [3]). Further, the activity at 10 µM was 105% on PRMT8 (setting [2]); 90% at SETD2 (setting [4]); 90% at SETD7 (setting [4]); 101% on SETD8 (setting [4]); 100% on SUV420H2 (setting [4]).
